{"source": "patent US7276532B2", "about": "“Remedies for vesical hyperactivity” (Kyowa Hakko Kogyo Co., Ltd., priority 2001, dated 2007)", "test_system": "spinal cord-injured rats", "test": "Inhibitory activity on detrusor hyperreflexia (cystometry test)", "assay_type": "in vivo, rat", "conditions": "1 mg/kg p.o., average ± standard error", "experimental": "The experiment was carried out according to the method of Cheng, et al. [Brain Res., Vol. 678, pp. 40-48 (1995)].\nFemale SD rats of 8 to 10 weeks of age (supplied by Japan SLC) were used in the test. Five to seven animals of these rats were put in each metal cage and reared by allowing them to freely take commercially available chow and water, in an animal room at room temperature between 19 and 25° C. and humidity between 30 and 70% under illumination for 12 hours (from 7:00 a.m. to 7:00 p.m.) per day.\nAn operation of spinal cord injury was performed in the rats. Each animal was anesthetized with diethyl ether and the skin of the back side thoracic cord part was incised. A laminectomy at the 7th to 8th thoracic vertebrae level was performed. Then, the thoracic cord at the T7-T8 segments was macroscopically cut and a section of spinal cord (about 5 mm) was removed, and the wound cavity of the removed part was filled with oxidized regenerated cellulose for hemostasis. The incised part was sutured with a surgical silk. After the spinal cord injury operation, urine was expressed manually twice per day (at 8:00-9:00 and 18:00-19:00) for about 3 weeks until autonomic micturition developed. An antibiotic (ampicillin, Sigma. Chemical Co.) was intramuscularly administered to the animals at a dose of 150 mg/kg once to twice per day for about 2 weeks.\nFour to five weeks after the spinal cord injury, the rats were subjected to bladder catheterization. Under diethyl ether anesthesia, the bladder was exposed by midline incision of the abdomen. […] The bladder catheter was fixed with a surgical silk ligature and indwelled. The other end of the catheter was exposed subcutaneously from the back of the neck, plugged and then fixed to the skin with a surgical thread.\nFour to six days after the bladder catheterization, a cystometry test was performed. The rats were put in a Bollman cage (Natsume Seisakusho Co., Ltd.) and a three-way cock was connected to the bladder catheter, one end of the cock was connected to a pressure transducer (Nihon Kohden Corp.) and the other end was connected to a 50-mL syringe (Terumo Corp.) arranged to an infusion pump (Harvard Apparatus, Inc.) for physiological saline infusion. The intravesical pressure signal from the pressure transducer was amplified with a strain pressure amplifier (AP-601G, Nihon Kohden Corp.) connected thereto, and was recorded on a thermal array recorder (RTA-1200, Nihon Kohden Corp.) via a polygraph system (RMP-6008, Nihon Kohden Corp.) containing the above amplifier. Sixty to ninety minutes after the completion of the preparation for the measurement, a room temperature physiological saline was infused into the bladder at a flow rate of 10 mL/h for 30 minutes, the occurence of micturition contractions was confirmed. Thirty minutes later, the infusion of physiological saline was carried out again for 30 minutes, and the intravesical pressure was measured to be used as the pre-administration value. Each of Compounds 1 to 6 was suspended in a 0.5 w/v % aqueous solution of methylcellulose at a concentration of 1 mg/mL suspension. The suspension was further diluted with a 0.5 w/v % aqueous solution of methylcellulose to prepare a suspension or solution for the administration at the intended concentration, which was then orally administered to the animals at a volume of 1 mL/kg. The period of 1, 3 and 5 hours after the dosing was used as the measuring time after the administration of the solvent or a compound tested, and the intravesical infusion of a physiological saline was carried out during a duration of 15 minutes around each measuring time (i.e. from 45 to 75 minutes, from 165 to 195 minutes and from 285 to 315 minutes after the administration of the compound).\nMicturition contraction was measured as an index of the voiding function and pre-micturition contraction was measured as an index of detrusor hyperreflexia. […]", "data": [{"molecule": "C[C@](O)(C(=O)Nc1cccc2c1C(=O)c1sccc1CO2)C(F)(F)F", "note": "[Compound 4]", "values": [{"measurement": "micturition contractions (relative value, before administration = 100)", "setting": "after 1 hr.", "value": "95.5 ± 8.2", "unit": "%"}, {"measurement": "pre-micturition contractions (relative value, before administration = 100)", "setting": "after 1 hr.", "value": 58.6, "unit": "%"}, {"measurement": "micturition contractions (relative value, before administration = 100)", "setting": "after 3 hrs.", "value": "106.2 ± 7.0", "unit": "%"}, {"measurement": "pre-micturition contractions (relative value, before administration = 100)", "setting": "after 3 hrs.", "value": 44.4, "unit": "%"}, {"measurement": "micturition contractions (relative value, before administration = 100)", "setting": "after 5 hrs.", "value": "121.4 ± 9.5", "unit": "%"}, {"measurement": "pre-micturition contractions (relative value, before administration = 100)", "setting": "after 5 hrs.", "value": 42.6, "unit": "%"}]}, {"molecule": "CC(C)(C)C(=O)Nc1cccc2c1C(=O)c1sccc1CO2", "note": "[Compound 5]", "values": [{"measurement": "micturition contractions (relative value, before administration = 100)", "setting": "after 1 hr.", "value": "96.8 ± 4.4", "unit": "%"}, {"measurement": "pre-micturition contractions (relative value, before administration = 100)", "setting": "after 1 hr.", "value": "86.2 ± 10.2", "unit": "%"}, {"measurement": "micturition contractions (relative value, before administration = 100)", "setting": "after 3 hrs.", "value": "109.4 ± 6.4", "unit": "%"}, {"measurement": "pre-micturition contractions (relative value, before administration = 100)", "setting": "after 3 hrs.", "value": "57.3 ± 9.2", "unit": "%"}, {"measurement": "micturition contractions (relative value, before administration = 100)", "setting": "after 5 hrs.", "value": "113.9 ± 15.4", "unit": "%"}, {"measurement": "pre-micturition contractions (relative value, before administration = 100)", "setting": "after 5 hrs.", "value": "44.8 ± 6.1", "unit": "%"}]}, {"molecule": "CC(O)(C(=O)Nc1ccc(Cl)c2c1C(=O)c1sccc1CS2(=O)=O)C(F)(F)F", "note": "(stereo not drawn) [Compound 6]", "values": [{"measurement": "micturition contractions (relative value, before administration = 100)", "setting": "after 1 hr.", "value": "96.8 ± 4.4", "unit": "%"}, {"measurement": "pre-micturition contractions (relative value, before administration = 100)", "setting": "after 1 hr.", "value": "62.7 ± 9.3", "unit": "%"}, {"measurement": "micturition contractions (relative value, before administration = 100)", "setting": "after 3 hrs.", "value": "109.4 ± 6.4", "unit": "%"}, {"measurement": "pre-micturition contractions (relative value, before administration = 100)", "setting": "after 3 hrs.", "value": "87.9 ± 16.9", "unit": "%"}, {"measurement": "micturition contractions (relative value, before administration = 100)", "setting": "after 5 hrs.", "value": "113.9 ± 15.4", "unit": "%"}, {"measurement": "pre-micturition contractions (relative value, before administration = 100)", "setting": "after 5 hrs.", "value": "69.0 ± 11.8", "unit": "%"}]}]}
